{
  "source": "paper PMC8297771",
  "about": "(PLoS Pathogens, 2021)",
  "key": {"full-length IN": {"target": "T1, full-length IN (Human immunodeficiency virus type 1 group M subtype B, UniProt P12497)", "T1 construct": "between two full-length IN protein populations differentially labeled", "assay": "HTRF-based IN multimerization assay", "type": "biochemical, HIV-1", "description": "To test the ability of STP0404 to induce higher-order multimerization of IN we employed homogeneous time-resolved fluorescence (HTRF)-based assay. Briefly, His-tagged and FLAG-tagged INs (each at 10 nM final concentration) were mixed in buffer containing 25 mM Tris, pH 7.4, 150 mM NaCl, 2 mM MgCl2, 0.1% Nonidet P-40 and 1 mg/ml BSA. This mixture was incubated with various concentrations of the test compounds for 3 hrs at room temperature. The detection is based on anti-His6-XL665 and anti-FLAG-EuCryptate antibodies (Cisbio, Inc., Bedford, MA) which were added to the reaction and incubated at room temperature for 3 hrs. The HTRF signal was recorded by PerkinElmer EnSpire multimode plate reader and OriginLab software was used to calculate the EC50 values."}, "[1]": {"test_system": "Ral-resistant (4736_4) clinical isolate", "assay": "In vitro anti-viral assay in human PBMCs (RT activity readout)", "type": "cell-based, HIV-1", "conditions": "human PBMCs, Ral-resistant (4736_4)", "description": "(§1) For the assay with human PBMCs, PHA stimulated cells from at least two pooled healthy were infected with HIV-1 strains in 96-well plates. Test drug dilutions, which were prepared at a 2X concentration in microtiter tubes and 100 μL of each concentration (nine total concentrations), were placed in appropriate wells using the standard format. 50 μL of a predetermined dilution of virus stock was placed in each test well (final MOI ≅ 0.1). The PBMC cultures were maintained for 7 days following infection at 37 °C, 5% CO2. After this period, cell-free supernatant samples were collected for analysis of reverse transcriptase (RT) activity. All assays were conducted in triplicates. For RT assay, a microtiter plate-based reverse transcriptase (RT) reaction was utilized (Buckheit et al., AIDS Research and Human Retroviruses 7:295–302, 1991). Tritiated thymidine triphosphate (^3H-TTP, 80 Ci/mmol, NEN) is received in 1:1 dH2O: Ethanol at 1 mCi/mL. Poly rA:oligo dT template:primer (GE Healthcare) was prepared as a stock solution by combining 150 μL poly rA (20 mg/mL) with 0.5 mL oligo dT (20 units/mL) and 5.35 mL sterile dH2O followed by aliquoting (1.0 mL) and storage at—20°C. The RT reaction buffer was prepared fresh on a daily basis and consisted of 125 μL 1.0 M EGTA, 125 μL dH2O, 125 μL 20% Triton X100, 50 μL 1.0 M Tris (pH 7.4), 50 μL 1.0 M DTT, and 40 μL 1.0 M MgCl2. The final reaction mixture was prepared by combining 1 part ^3H-TTP, 4 parts dH2O, 2.5 parts poly rA:oligo dT stock and 2.5 parts reaction buffer. Ten microliters of this reaction mixture were placed in a round bottom microtiter plate and 15 μL of virus containing supernatant is added and mixed. The plate was incubated at 37°C for 60 mins. Following incubation, the reaction volume was spotted onto DE81 filter-mats (Wallac), washed 5 times for 5 mins each in a 5% sodium phosphate buffer or 2X SSC (Life Technologies). Next they were washed 2 times for 1 min each in distilled water, 2 times for 1 min each in 70% ethanol, and then dried. Incorporated radioactivity (counts per min, CPM) was quantified using standard liquid scintillation techniques. These PBMC analysis was conducted by fee to service through Southern Research Institute (Frederick, MD, USA). The IC50 were analyzed using GraphPad Prism (Version 9) and presented as means ± S.D. of the triplicates."}, "[2]": {"test_system": "Ral-resistant (8070_1) clinical isolate", "assay": "In vitro anti-viral assay in human PBMCs (RT activity readout)", "type": "cell-based, HIV-1", "description": "as §1"}, "bone marrow cells": {"test_system": "bone marrow cells", "assay": "Micronucleus study by oral administration in rats (GLP)", "type": "in vivo, SD rats", "conditions": "500, 1000 and 2000 mg/kg/day", "description": "(§2) Bacterial reverse mutation assay (Study no. YL18407). The bacterial reverse mutation assay of STP0404 was performed in two conditions (with or without metabolic activation) for the dose range-finding test (doses of STP0404rangingfrom 2.29 to 5,000μg/plate) and the main test (doses of STP0404 ranging from 19.5 to 5,000 μg/plate) in comparison with negative control (DMSO) and active controls (sodium azide, 2-(2-furyl)-3-(5-nitro-2-furyl) acrylamide, 2-aminoanthracene, 9-aminoacridine hydrochloride). Salmonella typhimurium (TA100, TA1535) and Escherichia coli (WP2uvrA) were used for detection of base-pair substitutions. Salmonella typhimurium (TA98, TA1537) was used for detection of frameshift mutations. Chromosomal Aberration Test of STP0404 in Cultured Mammalian Cells (Study no. YL18408). Presence/absence of genotoxicity of STP0404 was determined using chromosomal aberration test carried out in CHL/IU cells. The test comprised a dose range-finding test and a main test. Micronucleus Study of STP0404 by oral administration in Rats (Study no. YL18409). STP0404 was administered orally to SD rats (3/group in preliminary test and 6/group in the main test) at dose levels of 500, 1000 and 2000 mg/kg/day once daily for 2 days in a two-test study (preliminary test and main test) to investigate the genotoxicity profile of STP0404. […] Bone marrow smear slides were evaluated (INA Research, Japan)."}, "CHL/IU cells": {"test_system": "CHL/IU cells", "assay": "Chromosomal aberration test in cultured mammalian cells (GLP)", "type": "cell-based", "conditions": "25~140 μg/mL", "description": "as §2"}, "HIV-1NL4-3": {"test_system": "HIV-1NL4-3", "assay": "In vitro anti-viral assay in human PBMCs (RT activity readout)", "type": "cell-based", "description": "as §1"}},
  "data": [
    {"smiles": "Cc1nc2c(c(C)c(C)n2Cc2cnn(C)c2)c(-c2ccc(Cl)cc2)c1[C@H](OC(C)(C)C)C(=O)O", "note": "[STP0404]", "values": [
      {"measurement": "EC50", "setting": "full-length IN", "value": "147 ± 20", "unit": "nM"},
      {"measurement": "IC50", "setting": "[1]; Human immunodeficiency virus 1, PBMC, read-out: IC50", "value": "0.04 ± 0.06", "unit": "nM"},
      {"measurement": "TI (TC50 / IC50)", "setting": "[1]", "value": ">250,000"},
      {"measurement": "IC50", "setting": "[2]; Human immunodeficiency virus 1, PBMC", "value": "0.06 ± 0.07", "unit": "nM"},
      {"measurement": "TI (TC50 / IC50)", "setting": "[2]; human PBMCs, Ral-resistant (8070_1)", "value": ">166,000"},
      {"measurement": "bone marrow cell proliferation inhibitory potential", "setting": "bone marrow cells", "value": "lacked"},
      {"measurement": "micronucleus-inducing potential", "setting": "bone marrow cells", "value": "lacked"},
      {"measurement": "chromosomal aberration-inducing potential", "setting": "CHL/IU cells", "value": "lacked"},
      {"measurement": "IC50", "setting": "HIV-1NL4-3; Human immunodeficiency virus 1, NL43, PBMC", "value": "0.41 ± 0.43", "unit": "nM"},
      {"measurement": "TI (TC50 / IC50)", "setting": "HIV-1NL4-3; human PBMCs, NL4-3, minimal TI from IC50 and 10 μM", "value": ">24,000"}
    ]}
  ]
}
